In US12472176B2, “Pharmaceutical compositions comprising (S)-4-(4-(4-(((2-(2,6-dioxopiperidin-3-yl)-1-oxoisoindolin-4-yl)oxy)methyl)benzyl)piperazin-1-yl)-3-fluorobenzonitrile and methods of using the same” (Celgene Corporation, priority 2020, dated 2025):

What was measured:
[1] = Binary drug-excipient compatibility study (open dish); format: physicochemical
Procedure: A binary drug-excipient compatibility study was conducted to identify suitable excipients for capsule formulation. Considering the low dose formulation where diluent constitutes majority of the composition, API to diluent ratio was 1:400; for other excipients, the ration was 1:50.
Drug substance and excipients were dispensed at predetermined ratios, mixed using a vortex mixer for 30 seconds, and then dispensed into required number of vials for stability study. These vials (open dish condition) were exposed to 50° C./0% RH and 50° C./75% RH conditions for 2 and 4 weeks respectively. The control samples were stored in a refrigerator at 5° C. Selective samples were tested for chemical degradants and loss of chiral purity (conversion of S-isomer to R-isomer) after 2-weeks.
The following are the major degradation pathways that could be shelf-life limiting: (1) hydrolysis; (2) oxidation; and (3) loss of chiral purity. The total chemical impurities and chiral impurity levels of the samples after stressing for 2-weeks and 4-weeks are compared with the control samples which are shown in FIG. 1A and FIG. 1B, respectively.

[2] = pKa and pHmax of the HBr salt; format: physicochemical
[3] = control sample, stored at 5° C.

chemical impurity level ([1]; 2-weeks exposure at 50° C./75% RH, open dish): 0.35%
chemical impurity level ([1]; 4-weeks exposure at 50° C./75% RH, open dish): 0.77%
chiral impurity ([1]; 4 weeks at 50° C./75% RH, open dish): 0.4%
chemical impurities [1, 3]: 0.2%
chiral impurity [1, 3]: 0.3%
change in chemical impurities or chiral impurity ([1]; dry condition (50° C.)): no significant change
pHmax [2]: 4.62
pKa [2]: 6.62
Compound: Br.N#Cc1ccc(N2CCN(Cc3ccc(COc4cccc5c4CN([C@H]4CCC(=O)NC4=O)C5=O)cc3)CC2)c(F)c1 [Compound 1 HBr]
